4 molecules from patent EP0771564A1, “INTERLEUKIN-5 PRODUCTION INHIBITOR” (TAISHO PHARMACEUTICAL CO. LTD, priority 1994, dated 1996) can be followed below.

In one series the test system is ICR male mice. Nature of the series: Oral administration safety test in mice (mortality). In kind it is in vivo. Conditions: orally administered to ICR male mice, dose level of 100 mg/kg. An excerpt: The compounds of Examples 1 and 2 were orally administered to ICR male mice grouped in fives.
The test system of a further series is IL-5 production. Nature of the series: Inhibition of IL-5 production by antigen-stimulated murine Th2 clone D10.G4.1 cells (IL-5 ELISA of culture supernatant). In kind it is cell-based, mice. Conditions: inhibitory effect on IL-5 production, D10.G4.1 cells with MMC-treated antigen presenting cells and conalbumin, 48 hours incubation. For orientation: ELISA stands for enzyme-linked immunosorbent assay.

Method for IL-5 production: Murine Th2 clone (D10.G4.1 cells) was purchased from ATCC. Antigen presenting cells were prepared by suspending 1 x 10^7 spleen cells of a 8-week-old female C3H/HeN mice in 5 ml of an RPMI-1640 medium and incubated together with 50 µg/ml of mitomycin C (MMC) at 37°C for 30 minutes and then washed with three 50 ml portions of RPMI-1640. To RPMI-1640 containing 10% bovine serium were added 0.5 U of IL-2 (produced by Genzyme) and 5 x 10^-5 M of 2-mercaptoethanol to prepare a medium for tissue culture.
In each well of a 96-well microtiter plate (produced by Corning Glass Works) were put each 50 µl/well of 4 x 10^5 cells/ml of D10.G4.1 cells, 2 x 10^6 cells/ml of MMC-treated antigen presenting cells, 400 µg/ml of conalbumin (produced by Sigma) as an antigen and the solution of the test compound in the tissue culture medium (to make 200 µl/well), and incubated in an incubator under 5% CO2 at 37°C for 48 hours. After completion of the incubation, the supernatant liquor of the culture was collected, and the cells were seprated by centrifugation. The IL-5 in the supernatant liquor was determined with an IL-5 ELISA kit produced by ENDOGEN.

Consider `CCC1OC(=O)C(C)C(Oc2c(F)c(F)c(F)c(F)c2[N+](=O)[O-])C(C)C(OC2OC(C)CC(N(C)C)C2O)C(C)(OC)CC(C)C(=O)C(C)C(O)C1(C)O` (centres unmarked) [Compound of Example 2, 3-O-(2-Nitro-3,4,5,6-tetrafluoro)-phenyl-5-O-desosaminyl-6-O-methylerythronolide A], for which the death result with ICR male mice was “No death was observed”. The IC50 in the series on IL-5 production was less than 100 nM.
With `CC[C@H]1OC(=O)[C@H](C)[C@@H](O[C@H]2C[C@@](C)(OC)[C@@H](O)[C@H](C)O2)[C@H](C)[C@@H](O[C@@H]2O[C@H](C)C[C@H](N(C)C)[C@H]2O)[C@](C)(O)C[C@@H](C)/C(=N\OCOCCOC)[C@H](C)[C@@H](O)[C@]1(C)O` [Roxithromycin, reference compound], the IC50 in the series with IL-5 production (Mus musculus) turned out to be 930 nM.
In the case of “3-O-(4-Biphenyl)acetyl-5-O-desosaminyl-6-O-methylerythronolide A 11,12-Cyclic Carbonate [Compound of Example 1]”, the IC50 with IL-5 production is less than 400 nM.
The molecule `CC[C@H]1OC(=O)[C@H](C)[C@@H](O[C@H]2C[C@@](C)(OC)[C@@H](O)[C@H](C)O2)[C@H](C)[C@@H](O[C@@H]2O[C@H](C)C[C@H](N(C)C)[C@H]2O)[C@](C)(O)C[C@@H](C)C(=O)[C@H](C)[C@@H](O)[C@]1(C)O` [Erythromycin, reference compound] registered an IC50 in the series with IL-5 production (Mus musculus) of 4500 nM.

Usually IC50 stands for the concentration that gives 50% inhibition. A higher IC50 goes with weaker potency in that assay.
